Earlier results, collected in PMC5579141.

Experiment: not told

log partition benzene / water [log10] | log partition dibutyl ether / water [log10] | log partition dichloromethane / water [log10] | log partition heptane / water [log10] | log partition hexanol / water [log10] | log partition nitrobenzene / water [log10] | log partition nonanol / water [log10] | log partition octane / water [log10] | log partition tetrachloromethane / water [log10] | log partition toluene / water [log10] | log partition trichloromethane / water [log10] | Compound | further results
0.15 | 0.08 | 0.40 | −0.57 | 0.62 | 0.30 | 0.59 | −0.62 | 0.02 | 0.13 | 0.33 | CC(=O)CC(=O)C(F)(F)F | log partition dodecane / water: −0.76 log10; log partition ethylbenzene / water: −0.18 log10; log partition hexane / water: −0.51 log10; log partition pentanol / water: 0.52 log10
3.05 | 2.36 | 3.48 | 2.03 | 2.48 | 3.19 | 2.43 | 2.00 | 2.77 | 2.91 | 3.50 | CC(=O)CC(=O)c1ccccc1 | log partition 1,2-dichloroethane / water: 3.23 log10; log partition bromobenzene / water: 3.36 log10; log partition chlorobenzene / water: 3.13 log10; log partition cyclohexane / water: 2.11 log10; log partition decane / water: 2.00 log10; log partition decanol / water: 2.38 log10; log partition m-xylene / water: 2.81 log10; log partition nonane / water: 1.97 log10; log partition octanol / water: 2.52 log10
